{"source": "PubChem BioAssay (NCI)", "test_system": "SN12K1 renal", "test": "NCI-60 cell line screen, 48 h", "note": "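The compound was tested at five concentrations on cells cultured in 96-well plates, with a 48-hour exposure period. TGI: total growth inhibition.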", "data": [{"smiles": "O=C(O)CCCc1ccc(N(CCCl)CCCl)cc1", "values": [{"measurement": "TGI", "result": 238, "unit": "µM"}]}, {"smiles": "CC1(C)N=C(N)N=C(N)N1c1ccc(CCCCc2ccc(S(=O)(=O)F)cc2Cl)c(Cl)c1", "values": [{"measurement": "TGI", "result": 6.92, "unit": "µM"}]}]}
